Measured values published in patent US10780101B2, “Amide derivatives of squalamine for the treatment of infections” (VIRBAC, priority 2016, dated 2020).
Converted amounts (≈) assume the structure as drawn. Where two headings read alike, the source gives them in different places.

Experiments:
CHO-K1 cells = assay: WST1 cytotoxicity test on CHO-K1 cells; assay type: cell-based, Chinese hamster; settings: Cricetulus griseus, read-out: IC50 (μg/mL) CHO
How it was run: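 CHO-K1 cells pre-grown 24 h, then exposed to increasing compound concentrations in duplicate for 24 h at 37° C, 5% CO2. Viability read after 20 min with 10% WST-1 in PBS at 450 nm; IC50 from nonlinear regression as concentration cutting viability 50%.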

S. aureus Animal (340) = assay: MIC determination, S. aureus animal (340); assay type: cell-based; settings: Staphylococcus aureus; Gram-positive; Mueller-Hinton medium, 24 h at 37° C.
How it was run: (§1)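 MH broth, inoculum OD 0.01/well, 0.5 cascade dilution of test compound (stock 5 mg/mL, DMSO/MeOH 50:50). 37 °C, 24 h, humid. OD620 read → MIC. n=2.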

P. aeruginosa (1051575) [1] = assay: Potentiation of chloramphenicol activity (combination MIC); assay type: cell-based, Pseudomonas aeruginosa; settings: chloramphenicol 2 μg/mL; concentration of compound required to restore antibiotic activity
Experimental: This method requires the use of a 96-well plate: 100 μL of a liquid culture medium are placed in each well and then seeded with the microbial suspension prepared previously. The required volume to be seeded is calculated for an OD of 0.01, which corresponds to about 5×10^6 bacteria in each well. In this plate, the first line corresponds to a negative control (200 μL of sterile culture medium in each well), the second line corresponds to a positive control (100 μL of sterile culture medium+100 μL of the bacterial suspension), and the third line contains 192 μL of culture medium; 8 μL of compound of formula (I) to be tested are placed in each well. Thereafter, a cascade dilution is performed from this line. […] 92 μL of bacterial suspension are then added to lines 3 to 8. The results are read (the determination of the MIC (2 μg/mL of doxycycline) in the presence of X g/mL of compound of formula (I)) after 24 hours of incubation at 37° C. under a humid atmosphere. After 24 hours of incubation at 37° C., 40 μL of nitro tetrazolium iodide are added to each well to reveal the presence of live bacteria by staining the medium pink.
The procedure is identical to that indicated in Example 5 above. […]
(§2) The results are given in table V. They indicate the concentration of compound of formula (I) required to be able to restore the activity of the antibiotic under consideration.

[2] = tested on: E. faecalis Human ATCC 29212; assay: MIC determination, E. faecalis human ATCC 29212; assay type: cell-based; settings: Enterococcus faecalis, ATCC29212; Gram-positive; Mueller-Hinton medium, 24 h at 37° C.
How it was run: as §1

[3] = tested on: P. aeruginosa Animal (1051575); assay: MIC determination, P. aeruginosa animal (1051575); assay type: cell-based; settings: Pseudomonas aeruginosa; Gram-negative; Mueller-Hinton medium, 24 h at 37° C.
How it was run: as §1

[4] = tested on: S. intermedius Animal (1051997); assay: MIC determination, S. intermedius animal (1051997); assay type: cell-based; settings: Staphylococcus intermedius; Gram-positive; Mueller-Hinton medium, 24 h at 37° C.
How it was run: as §1

P. aeruginosa (1051575) [5] = assay: Potentiation of erythromycin activity (combination MIC); assay type: cell-based, Pseudomonas aeruginosa; settings: erythromycin 2 μg/mL; concentration of compound required to restore antibiotic activity
Experimental: This method requires the use of a 96-well plate: 100 μL of a liquid culture medium are placed in each well and then seeded with the microbial suspension prepared previously. The required volume to be seeded is calculated for an OD of 0.01, which corresponds to about 5×10^6 bacteria in each well. In this plate, the first line corresponds to a negative control (200 μL of sterile culture medium in each well), the second line corresponds to a positive control (100 μL of sterile culture medium+100 μL of the bacterial suspension), and the third line contains 192 μL of culture medium; 8 μL of compound of formula (I) to be tested are placed in each well. Thereafter, a cascade dilution is performed from this line. L of a doxycycline solution (1 mg dissolved in 20 mL) are then added to each well of lines 3 to 8 to obtain a final antibiotic concentration of 2 μg/mL. 92 μL of bacterial suspension are then added to lines 3 to 8. The results are read (the determination of the MIC (2 μg/mL of doxycycline) in the presence of X g/mL of compound of formula (I)) after 24 hours of incubation at 37° C. under a humid atmosphere. After 24 hours of incubation at 37° C., 40 μL of nitro tetrazolium iodide are added to each well to reveal the presence of live bacteria by staining the medium pink.
The procedure is identical to that indicated in Example 5 above. 8 μL of an antibiotic solution under consideration (1 mg dissolved in 20 mL) are added to obtain a final antibiotic concentration of 2 μg/mL instead of 8 μL of a doxycycline solution.
as §2

[6] = tested on: S. aureus Human ATCC 25923; assay: MIC determination, S. aureus human ATCC 25923; assay type: cell-based; settings: Staphylococcus aureus, ATCC25923; Gram-positive; Mueller-Hinton medium, 24 h at 37° C.
How it was run: as §1

E. coli Animal (1956) = assay: MIC determination, E. coli animal (1956); assay type: cell-based; settings: Escherichia coli; Gram-negative; Mueller-Hinton medium, 24 h at 37° C.
How it was run: as §1

E. coli Human ATCC 28922 = assay: MIC determination, E. coli human ATCC 28922; assay type: cell-based; settings: Escherichia coli, ATCC28922; Gram-negative; Mueller-Hinton medium, 24 h at 37° C.
How it was run: as §1

[7] = tested on: P. aeruginosa Human ATCC 27853; assay: MIC determination, P. aeruginosa human ATCC 27853; assay type: cell-based; settings: Pseudomonas aeruginosa, ATCC27853; Gram-negative; Mueller-Hinton medium, 24 h at 37° C.
How it was run: as §1

P. aeruginosa (1051575) [8] = assay: Potentiation of doxycycline activity (combination MIC); assay type: cell-based, Pseudomonas aeruginosa; settings: in presence of doxycycline 2 μg/mL; 24 hours at 37° C.

Row | SMILES | IC50 (CHO-K1 cells; Table III, WST1 test, CHO-K1 cells, 24 hours) | MIC (S. aureus Animal (340)) | MIC P. aeruginosa (1051575) compound + chloramphenicol (P. aeruginosa (1051575) [1]) | MIC [2] | MIC [3] | MIC [4] | MIC P. aeruginosa (1051575) compound + erythromycin (P. aeruginosa (1051575) [5]) | MIC [6] | MIC (E. coli Animal (1956)) | MIC (E. coli Human ATCC 28922) | MIC [7] | IC50 (CHO-K1 cells; CHO-K1, 24 h) | MIC - P. aeruginosa (1051575): content of compound of formula (I) to restore the doxycycline activity (at 2 μg/mL) (P. aeruginosa (1051575) [8])
1 | CC(C)NC(=O)CC[C@@H](C)[C@H]1CCC2C3C(C[C@H](O)[C@@]21C)[C@@]1(C)CC[C@H](NCCNCCNCCNCCNCCN)CC1C[C@H]3O (stereo partly drawn) [(21), 3β-(pentaethylenehexamine)-N-isopropylcholamide] | 60 µg/mL (≈ 90.4 µM) | 17 µg/mL (≈ 25.6 µM) | 8 µg/mL | 30 µg/mL (≈ 45.2 µM) | 30 µg/mL (≈ 45.2 µM) | 8 µg/mL (≈ 12 µM) | 30 µg/mL | 17 µg/mL (≈ 25.6 µM) | 30 µg/mL (≈ 45.2 µM) | 130 µg/mL (≈ 196 µM) | 130 µg/mL (≈ 196 µM) |  | 
2 | CC(C)N(C(=O)CC[C@@H](C)[C@H]1CCC2C3C(CC[C@@]21C)[C@@]1(C)CC[C@H](NCCCNCCCN)CC1C[C@H]3O)C(C)C (stereo partly drawn) [(37), 3β-norspermidino-N-diisopropylchenodeoxycholamide] |  | 2 µg/mL (≈ 3.4 µM) | 2 µg/mL | 4 µg/mL (≈ 6.79 µM) | 15 µg/mL (≈ 25.5 µM) | 1 µg/mL (≈ 1.7 µM) | 7 µg/mL | 4 µg/mL (≈ 6.79 µM) | 4 µg/mL (≈ 6.79 µM) | 15 µg/mL (≈ 25.5 µM) | 30 µg/mL (≈ 50.9 µM) | 35 µg/mL (≈ 59.4 µM) | 2 µg/mL
3 | CC(C)NC(=O)CC[C@@H](C)[C@H]1CCC2C3CCC4C[C@@H](NCCCN(CCCN)CCCN)CC[C@]4(C)C3C[C@H](O)[C@@]21C (stereo partly drawn) [(42), 3β-(tris(3-aminopropyl)amine)-N-isopropyldeoxycholamide] |  | 4 µg/mL (≈ 6.62 µM) | 2 µg/mL | 30 µg/mL (≈ 49.7 µM) | 60 µg/mL (≈ 99.3 µM) | 1 µg/mL (≈ 1.66 µM) | 8 µg/mL | 4 µg/mL (≈ 6.62 µM) | 30 µg/mL (≈ 49.7 µM) | > 120 µg/mL | 30 µg/mL (≈ 49.7 µM) | 40 µg/mL (≈ 66.2 µM) | 1 µg/mL
4 | CC(C)NC(=O)CC[C@@H](C)[C@H]1CCC2C3C(C[C@H](O)[C@@]21C)[C@@]1(C)CC[C@H](NCCCN(CCCN)CCCN)CC1C[C@H]3O (stereo partly drawn) [(43), 3β-(tris(3-aminopropyl)amine)-N-isopropylcholamide] |  | 16 µg/mL (≈ 25.8 µM) | 4 µg/mL | 60 µg/mL (≈ 96.8 µM) | 60 µg/mL (≈ 96.8 µM) | 8 µg/mL (≈ 12.9 µM) | 30 µg/mL | 16 µg/mL (≈ 25.8 µM) | 60 µg/mL (≈ 96.8 µM) | 125 µg/mL (≈ 202 µM) | 125 µg/mL (≈ 202 µM) | 38 µg/mL (≈ 61.3 µM) | 1 µg/mL
5 | CC(C)NC(=O)CC[C@@H](C)[C@H]1CCC2C3C(CC[C@@]21C)[C@@]1(C)CC[C@H](NCCN(CCN)CCN)CC1C[C@H]3O (stereo partly drawn) [(45), 3β-(tris(2-aminoethyl)amine)-N-isopropylchenodeoxycholamide] |  | 4 µg/mL (≈ 7.12 µM) | 7 µg/mL | 14 µg/mL (≈ 24.9 µM) | 28 µg/mL (≈ 49.8 µM) | 2 µg/mL (≈ 3.56 µM) | 28 µg/mL | 7 µg/mL (≈ 12.5 µM) | 14 µg/mL (≈ 24.9 µM) | 110 µg/mL (≈ 196 µM) | 110 µg/mL (≈ 196 µM) | 60 µg/mL (≈ 107 µM) | 7 µg/mL
6 | CC(C)NC(=O)CC[C@@H](C)[C@H]1CCC2C3CCC4C[C@@H](NCCCN(CCCN)CCCN)CC[C@]4(C)C3CC[C@@]21C (stereo partly drawn) [(49), 3β-(tris(3-aminopropyl)amine)-N-isopropyllithocholamide] |  | 4 µg/mL (≈ 6.8 µM) | 4 µg/mL | 15 µg/mL (≈ 25.5 µM) | 60 µg/mL (≈ 102 µM) | 2 µg/mL (≈ 3.4 µM) | 30 µg/mL | 4 µg/mL (≈ 6.8 µM) | 30 µg/mL (≈ 51 µM) | 120 µg/mL (≈ 204 µM) | 120 µg/mL (≈ 204 µM) | 6 µg/mL (≈ 10.2 µM) | 4 µg/mL
7 | CC(C)N(C(=O)CC[C@@H](C)[C@H]1CCC2C3C(CC[C@@]21C)[C@@]1(C)CC[C@H](NCCCNCCCCNCCCN)CC1C[C@H]3O)C(C)C (stereo partly drawn) [(50), 3β-spermino-N,N-diisopropylchenodeoxycholamide] |  | 2 µg/mL (≈ 3.03 µM) | 2 µg/mL | 4 µg/mL (≈ 6.06 µM) | 17 µg/mL (≈ 25.8 µM) | 2 µg/mL (≈ 3.03 µM) | 4 µg/mL | 4 µg/mL (≈ 6.06 µM) | 17 µg/mL (≈ 25.8 µM) | > 130 µg/mL | 17 µg/mL (≈ 25.8 µM) | 25 µg/mL (≈ 37.9 µM) | 2 µg/mL
8 | C[C@H](CCC(=O)NC1CCCCC1)[C@H]1CCC2C3C(CC[C@@]21C)[C@@]1(C)CC[C@H](NCCCNCCCCNCCCN)CC1C[C@H]3O (stereo partly drawn) [(51), 3β-spermino-N-cyclohexylchenodeoxycholamide] |  | 2 µg/mL (≈ 3.04 µM) | 2 µg/mL | 2 µg/mL (≈ 3.04 µM) | 16 µg/mL (≈ 24.3 µM) | 1 µg/mL (≈ 1.52 µM) | 8 µg/mL | 4 µg/mL (≈ 6.08 µM) | 16 µg/mL (≈ 24.3 µM) | 105 µg/mL (≈ 160 µM) | 16 µg/mL (≈ 24.3 µM) | 13 µg/mL (≈ 19.8 µM) | 2 µg/mL
